# Values quoted from earlier work, collected in patent US10905730B2, “Phytocannabinoid topical compositions for releiving pain” (priority 2017, dated 2021).
# Where two headings read alike, the source gives them in different places.
smiles,measurement,setting,value
"C=C(C)[C@@H]1CCC(C)=C[C@H]1c1c(O)cc(CCCCC)cc1O [CBD, cannabidiol]",solubility in organic solvents,,soluble in organic solvents such as pentane
same,solubility in water,,insoluble in water
same,chemical stability,acidic conditions,cyclizes to THC
same,chemical stability,strongly basic media and presence of air,oxidized to a quinone
